Test results published in a melting point compilation (Tetko et al.; mined from patent text by program, amines drawn as free bases though some values may be those of a salt).

melting point [°C]	SMILES
118 to 122	Sc1ccc2ccncc2c1Cl
101 to 102	Cc1cc2c(Cl)c(C#N)cnc2s1
91 to 93	Cc1cc(Oc2ccc([N+](=O)[O-])c(Cl)c2)n[nH]1
88 to 89.5	CCC(CC)Nc1c([N+](=O)[O-])cc(C(C)C)c(C=CN(C)C)c1[N+](=O)[O-]
155 to 157	COc1ccc(N2CCN(C3CCN(CC(O)COc4cccc5[nH]c(C)cc45)CC3)C2=O)cc1 (stereo not given)
175 to 177	Cc1cccc(S(=O)(=O)N2Cc3ccccc3C2)c1
128 to 130	COC(=O)c1ccc(OCCCN2CCN(c3ccc(Cl)nn3)CC2)cc1
134 to 139	CSC1C(=O)Nc2c(Oc3cccc4ccccc34)cccc21 (stereo not given)
73 to 76	CCOC(=O)c1cnoc1-c1ccc([N+](=O)[O-])cc1
124 to 127	Cc1cccc(OCC2=NCCN2C(=S)N(C)C)c1C
167 to 168	COc1ccc(-c2cccc(C(=O)NN)c2)cc1OC1CCCC1
128 to 130	O=C1Cc2c(Cl)cccc2Sc2c(F)cccc21
154 to 157	CCOC(=O)c1cn(C2CC2)c2c(Cl)c(F)c(F)cc2c1=O
120 to 121	CS(=O)c1ccc(C2=C(c3ccccc3)C(=O)C(C)(C)O2)cc1Cl (stereo not given)
107 to 109	CC(C)(C)OC(=O)Nc1ccc(-c2cccnc2)cc1[N+](=O)[O-]
158 to 159	O=C1CCCc2nc3ccccc3c(NCc3ccc(F)cc3)c21
82 to 85	Cn1nc(-c2ccccc2Cl)nc1-c1ccccc1Cl
175 to 176	O=C1CCC(=O)N1c1cccc(OCc2nc3ccccc3s2)c1

melting point [°C]	SMILES
185 to 187	CS(=O)(=O)c1ccc(Nc2ccn(-c3ccccc3)n2)cc1
93 to 95	COc1ccc(NC(=O)c2ccc(-c3ccc(-c4noc(C)n4)cc3)c(Cl)c2)cc1N1CCN(C)CC1
216	Cc1cc2cc(CN3CCCC3)cnc2cc1NC(=O)c1ccc(-c2ccc(Cl)s2)cc1
90 to 92	COc1ccc(-c2cc(Cl)c3ccccc3n2)cc1C
166 to 168	Cn1nc(C#N)c(Nc2ccc(Cl)cc2[N+](=O)[O-])n1
88 to 92	COc1c(S(=O)(=O)Cl)ccc(Cl)c1CBr
84 to 86	Cc1cccc(-c2[nH]c(C(C)C)nc2-c2cccc(-c3ccncc3)c2)n1
98 to 100	CC(C)c1nn(-c2ccccn2)c(-c2ccc(F)cc2)c1Br
87 to 88	COc1ccc2c3c1CCCN3C(C)(C)C=C2C
93 to 95	COCCCNc1c([N+](=O)[O-])cnc2ccccc12
133 to 135	NCC(=O)Nc1ccc(Cl)cc1C(=O)c1c(F)cccc1F
199 to 200	CC(NC(=O)c1ccc([N+](=O)[O-])cc1)C(=O)O (stereo not given)
238 to 239	O=C1Cc2cc(C(=O)CCl)c(Br)cc2N1
55 to 57	O=C(NCCSCc1cccc(Cl)c1)c1c(Br)cccc1Br
78 to 80	COc1ccc(O)cc1[N+](=O)[O-]
77 to 78	CCOC(=O)c1cc2ccc(N(CC)CC)cc2oc1=O
196 to 198	CC1(C)C(=O)Oc2ccc3ccc(C(C#N)n4cncn4)cc3c21 (stereo not given)
193 to 195	CSCCn1c(C)nc2c(N)nc3ccccc3c21

More lines, now with the values behind:

SMILES	melting point [°C]
Cc1c(C)c2c(c(C)c1NC(=O)CC(C)(C)C)C(c1ccc(C(C)CC(=O)O)cc1)CO2 (stereo not given)	209 to 210
O=C1N(Cc2cccc(-c3noc(C(F)(F)F)n3)c2)c2ccccc2C12COc1cc3c(cc12)CCO3 (stereo not given)	182 to 188
COc1ccc(C2C3=C(COC3=O)Nc3ccc4nc(S)[nH]c4c32)cc1O (stereo not given)	334 to 337
Nc1ccc(CCCn2cnnc2)cc1	150 to 153
C1CNCCNCCOCCNCCN1	80 to 81
NC(=O)c1cn(C(CO)CCc2ccccc2)cn1 (stereo not given)	127 to 130
CC(C)(C)OC(=O)NCC(=O)N[C@@H](Cc1ccccc1)C(=O)O	138 to 141
C=CC(=O)NC1CC(C)(C)N(C=CC(=O)OCC)C(C)(C)C1	123 to 125
CCS(=O)(=O)Nc1cc(Cc2c[nH]cn2)ccc1Cl	159 to 160
Cc1oc(-c2ccc3ccccc3c2)nc1CCc1ccc(CCCC2OC(=O)NC2=O)cc1 (stereo not given)	168 to 169
COc1ccc(/C=C(\C)[N+](=O)[O-])cc1OCc1ccccc1	102 to 104
Cc1ccc(C)c2oc(CN3CCC[C@@H](OCc4cc(C(F)(F)F)cc(C(F)(F)F)c4)[C@H]3c3ccccc3)nc12 (relative stereo)	109 to 110
CN1CCN(c2cccc(Nc3ncc4ccc(-c5cn[nH]c5)n4n3)c2)CC1	195
NCc1ccc(CN2CCN(c3ncccn3)CC2)cc1	70 to 72
CCOC(=O)c1cc(F)c(C2CNCC2NC(=O)OC(C)(C)C)cc1F (stereo not given)	98 to 100
O=C(O)c1cn2c3c(c(Cl)cc(Cl)c3c1=O)CCC2	300 to 304
O=C(c1ccc(Sc2ccc(O)cc2)cc1)c1ccc(Sc2ccc(O)cc2)cc1	219 to 221
CC(=O)Nc1ccc2cnn(-c3ccnc(N[C@H]4CC[C@H](O)CC4)n3)c2c1	288 to 290
COCC1(OP(=O)(O)O)CCN(c2c(F)cc(N3C[C@H](CNC(C)=O)OC3=O)cc2F)CC1	> 140
CCS(=O)(=O)C(=CNc1ccc(Cl)cc1)S(=O)(=O)CC	173 to 175
Nc1ccc(CCc2n[nH]c3c2c(=O)n(-c2ccccc2)c2ncccc32)cc1	> 310
CS(=O)(=O)Nc1cc(CC(=O)O)cc2c1NC(C(F)(F)F)CC2 (stereo not given)	189 to 191

SMILES	melting point [°C]
COc1ccc(-c2cc(=O)c3cc(OCCCCCN4CCC(O)CC4)ccc3o2)cc1	138 to 139
O=C1CC(c2ccco2)Cc2occ(C(F)(F)F)c21 (stereo not given)	94 to 95
Cn1nnnc1SCCSc1ccccn1	77 to 79.5
CN(C)CCCCC1CCCCN1C(=O)N1c2ccccc2C(=O)Nc2cccnc21 (stereo not given)	145 to 147
CCOc1cc2c(cc1OCC)CCC(C(=O)N1CCN(C(=O)c3cc(OC)c(OC)c(OC)c3)CC1)=C2	127 to 129
NC(c1ccccc1)c1ccc(C(N)c2ccc(C(N)c3ccccc3)cc2)cc1 (stereo not given)	182 to 185
CNC(=S)n1nc(Sc2ccc(C#N)cc2)nc1N	200 to 203
CCc1ccc2c(c1)c(-c1ccccc1Cl)c(NC(=O)Nc1ccc(F)cc1F)c(=O)n2C	192 to 195
O=C(O)C1=Cc2cc(-c3ccc(F)cc3)ccc2OC1C(F)(F)F (stereo not given)	207 to 210
COC(=O)CCCc1cc2cc(C(F)(F)F)ccc2n1S(=O)(=O)c1cccc(C(C)C)c1	115
C=CCNc1nc(NC(C)CC)c2scc(C)c2n1 (stereo not given)	91 to 92
O=C1CCC(Cn2c(=O)[nH]c3ncc(-c4ccc(O)cc4)nc32)N1 (stereo not given)	338 to 340
COc1cc(OC)cc(N2CCN(C(=O)[C@](C)(C#N)[C@H](c3ccccc3OC)c3cccc4ccccc34)CC2)c1	186 to 188
CCCCc1ccc2ncn(Cc3ccc(-c4ccccc4-c4nnnn4COC)cc3)c(=O)c2c1	112
O[C@H]1C[C@H]2CN(C3=Nc4cc(Cl)ccc4Sc4ccccc43)CCN2C1	58 to 60
CC(NC1CCc2ccccc21)C(=O)O (stereo not given)	248 to 250
Oc1ccc([C@@H]2CCc3cc(O)ccc3[C@@H]2Cn2ccnc2)cc1 (relative stereo)	238
COc1ccccc1C(OC)c1cccnn1 (stereo not given)	110 to 111
O=C1CCN(Cc2ccccc2)CC1C1c2ccccc2Oc2ccccc21 (stereo not given)	124 to 125
CCCCCc1ccc(-c2ccc(-c3ccc(C)cc3)s2)cc1F	115
CC1CCC(=O)N1CC(=O)NCCN(C(C)C)C(C)C (stereo not given)	73 to 74
CCOC(=O)c1cn(C[C@@H]2CN(c3ccc(N4CCC(=CC#N)CC4)c(F)c3)C(=O)O2)nn1	164 to 166

SMILES	melting point [°C]
CC(=O)OC1C(Oc2cccc(O)c2C(=O)CCc2ccc3occc3c2)OC(CO)C(O)C1OC(C)=O (stereo not given)	127 to 129
O=C1CCN(CCc2ccccc2)CC1C(c1ccccc1)c1ccccc1 (stereo not given)	73 to 76
CC(=O)N[C@@H](C)COC1CCN(c2nc3ccc(OCC4CC4)cc3s2)CC1	121 to 122
CCN(CC)C(=O)c1ccc(C(=C2CCNCC2)c2cccc(OC)c2)cc1	> 90
CCCCCCC1C(=O)NC2(C(O)C3CCCCC3)C(=O)OC12C (stereo not given)	167
COc1ccnc(CCc2nc3cc(-c4ccc(S(=O)(=O)Nc5ccc(N(C)C)cc5)cc4)cnc3[nH]2)c1	221 to 222
CN1C(=O)[C@H](NC(=O)CCc2cccc(C#N)c2)N=C(c2ccccc2)c2ccccc21	110 to 112
COc1ccc(CSC2(C(=O)O)CCCCC2)cc1	98
CC(O)CNC(=O)NC(=O)C(CC1CCCC1)c1ccc(Cl)c(Cl)c1 (stereo not given)	117 to 120
N#Cc1cc(Cl)c(NC(=O)C(F)(F)F)c(Cl)c1	134 to 136
CC(C)(C)C(=O)Oc1ccc(CCNC(=O)c2cccnc2)cc1	80 to 82
O=C(O)CN(CC(=O)O)c1nc(N(CC(=O)O)CC(=O)O)nc(N(CC(=O)O)CC(=O)O)n1	246 to 249
CCS(=O)(=O)N(C)C1CCCOc2ccccc21 (stereo not given)	122 to 124
O=C(CCCCCN1CCN(c2cccc(C(F)(F)F)c2)CC1)N1Cc2ccc(OCCN3CCCCC3)cc2C1	88
COc1nsc(N[C@@H](CC(C)C)C(=O)N2CCC[C@H]2C(=O)O)n1	89 to 92
Cc1c(C)c(N2CCN(C(=O)OC(C)(C)C)CC2)c(C)c2c1OC(C)(C)C2N1CCCC1 (stereo not given)	127 to 128
CC(C)(C)OC(=O)N1CCC[C@H](O)[C@@H]1c1ccc(Cl)cc1 (relative stereo)	95 to 96
NC(Cc1c[nH]c2ccccc12)C(=O)Nc1c(F)cc(F)cc1F (stereo not given)	45 to 55
O=C(O)CCOc1ccccc1CNC(=O)C1Cc2ccccc2N1S(=O)(=O)c1ccc(-c2cccc(C(F)(F)F)c2)cc1 (stereo not given)	100
O=C(NC(NC(=S)Nc1cccnc1)C(F)(F)F)c1ccc(Cl)cc1 (stereo not given)	147 to 149
